Assay results taken from ChEMBL document CHEMBL1152178, “Calmodulin inhibitory activity of the malbrancheamides and various analogs” (Bioorg Med Chem Lett, 2008).

Legend:
[1] = Inhibition of bovine brain PDE1; parameters: species or system Bos taurus
[2] = species on record: Bos taurus; assay: Ratio of IC50 of chlorpromazine to IC50 of compound for bovine brain PDE1

IC50 [1]	Ratio IC50 [2]	Compound
23.6 µM	0.7	CC1(C)c2[nH]c3ccccc3c2C[C@@]23NC(=O)[C@]4(CCCN4C2=O)C[C@H]13
151 µM	0.1	CC1(C)c2[nH]c3ccccc3c2C[C@@]23NC(=O)[C@]4(CCCN4C2=O)C[C@@H]13
31.5 µM	0.4	CC1(C)c2[nH]c3ccc(Cl)cc3c2C[C@@]23NC(=O)[C@]4(CCCN4C2=O)C[C@@H]13
61.8 µM	0.2	CC1(C)c2[nH]c3cc(Cl)ccc3c2C[C@@]23NC(=O)[C@]4(CCCN4C2=O)C[C@@H]13
18.6 µM	0.9	CC1(C)c2[nH]c3cc(Cl)c(Cl)cc3c2C[C@@]23NC(=O)[C@]4(CCCN4C2=O)C[C@@H]13
42.8 µM	0.3	CC1(C)c2[nH]c3cc(Cl)ccc3c2C[C@@]23NC(=O)[C@]4(CCCN4C2=O)C[C@H]13
62.3 µM	0.2	CC1(C)c2[nH]c3ccc(Cl)cc3c2C[C@@]23NC(=O)[C@]4(CCCN4C2=O)C[C@H]13

Continued, molecule first:

Compound	IC50 [1]	Ratio IC50 [2]
CC1(C)c2[nH]c3cc(Cl)ccc3c2CC23CN4CCCC4(CC21)C(=O)N3 (racemic) [D,L-MALBRANCHEAMIDE B]	42.9 µM	0.3
CC1(C)c2[nH]c3cc(Cl)c(Cl)cc3c2C[C@@]23NC(=O)[C@]4(CCCN4C2=O)C[C@H]13	33.9 µM	0.5
CC1(C)c2[nH]c3ccc(Cl)c(Cl)c3c2C[C@@]23NC[C@]4(CCCN4C2=O)C[C@H]13	27.5 µM	0.4
CC1(C)c2[nH]c3ccc(Cl)cc3c2C[C@@]23CN4CCC[C@]4(C[C@@H]12)C(=O)N3	60.3 µM	0.2
CC1(C)c2[nH]c3cc(Cl)c(Cl)cc3c2CC23CN4CCCC4(CC21)C(=O)N3 (racemic)	16 µM	1.1
CC1(C)c2[nH]c3ccc(Cl)c(Cl)c3c2C[C@@]23NC(=O)[C@]4(CCCN4C2=O)C[C@H]13	45.4 µM	0.2
CC1(C)c2[nH]c3cc(Cl)c(Cl)cc3c2C[C@@]23CN4CCC[C@]4(C[C@H]12)C(=O)N3	134 µM	0.1
CC1(C)c2[nH]c3cc(Cl)ccc3c2C[C@@]23CN4CCC[C@]4(C[C@@H]12)C(=O)N3 [MALBRANCHEAMIDE B]	183 µM	0.1
CC1(C)c2[nH]c3ccccc3c2C[C@@]23CN4CCC[C@]4(C[C@@H]12)C(=O)N3	35.7 µM	0.5
CC1(C)c2[nH]c3cc(Cl)c(Cl)cc3c2C[C@@]23CN4CCC[C@]4(C[C@@H]12)C(=O)N3	19.3 µM	0.9
CC1(C)c2[nH]c3ccc(Cl)c(Cl)c3c2C[C@@]23CN4CCC[C@]4(C[C@H]12)C(=O)N3	81.2 µM	0.1
CC1(C)c2[nH]c3cc(Cl)c(Cl)cc3c2C[C@@]23NC[C@]4(CCCN4C2=O)C[C@H]13	12 µM	0.9
